Data as given in PubChem BioAssay AID1919008 (Molecular Pharmacology Branch, DTP, NCI, 2023).
Where “and” joins values, the source holds several entries; their conditions need not be identical. Equal entries are not always repeated.

System: DMS-114 complex spheroids with HUVEC/MSC, growth % test/control
Experiment: Anticancer human tumor DMS-114 cell line growth inhibition [AhR];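 note: spheroids exposed to agents for 7 days before readout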;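 for viability, T/C: 100% = DMSO vehicle control wells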
Conditions: for viability, T/C: stronger effect = lower value
Method in brief: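 Spheroids combined tumor cells with HUVEC endothelial cells and human MSCs as stroma. AhR antagonists were paired with standard or investigational drugs, each dosed in half-log steps down from near clinical Cmax, or from 10 microM where Cmax was unknown.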

[1] = curve of first compound, second compound 0.1 µM
[2] = curve of first compound, second compound 0.316 µM
[3] = curve of first compound, second compound 1 µM
[4] = curve of first compound, second compound 3.16 µM
[5] = curve of first compound, second compound 10 µM
[6] = second compound 0.1 µM, first compound 0.0316 µM
[7] = second compound 0.1 µM, first compound 0.1 µM
[8] = second compound 0.1 µM, first compound 0.316 µM
[9] = second compound 0.1 µM, first compound 1 µM
[10] = second compound 0.1 µM, first compound 3.16 µM
[11] = second compound 0.1 µM, first compound 10 µM
[12] = second compound 0.316 µM, first compound 0.0316 µM
[13] = second compound 0.316 µM, first compound 0.1 µM
[14] = second compound 0.316 µM, first compound 0.316 µM
[15] = second compound 0.316 µM, first compound 1 µM
[16] = second compound 0.316 µM, first compound 3.16 µM
[17] = second compound 0.316 µM, first compound 10 µM
[18] = second compound 1 µM, first compound 0.0316 µM
[19] = second compound 1 µM, first compound 0.1 µM
[20] = second compound 1 µM, first compound 0.316 µM
[21] = second compound 1 µM, first compound 1 µM
[22] = second compound 1 µM, first compound 3.16 µM
[23] = second compound 1 µM, first compound 10 µM
[24] = second compound 3.16 µM, first compound 0.0316 µM
[25] = second compound 3.16 µM, first compound 0.1 µM
[26] = second compound 3.16 µM, first compound 0.316 µM
[27] = second compound 3.16 µM, first compound 1 µM
[28] = second compound 3.16 µM, first compound 3.16 µM
[29] = second compound 3.16 µM, first compound 10 µM
[30] = second compound 10 µM, first compound 0.0316 µM
[31] = second compound 10 µM, first compound 0.1 µM
[32] = second compound 10 µM, first compound 0.316 µM
[33] = second compound 10 µM, first compound 1 µM
[34] = second compound 10 µM, first compound 3.16 µM
[35] = second compound 10 µM, first compound 10 µM

COc1cc(Nc2ncc3c(n2)-c2ccc(Cl)cc2C(c2c(F)cccc2OC)=NC3)ccc1C(=O)O + Cc1cncc(-c2nc(NCCc3c[nH]c4ccccc34)c3ncn(C(C)C)c3n2)c1
IC50 [1]: < 31.6 nM
IC50 [2]: < 31.6 nM
IC50 [3]: < 31.6 nM
IC50 [4]: < 31.6 nM
IC50 [5]: < 31.6 nM
viability, T/C [6]: 34.3%
viability, T/C [7]: 23.1%
viability, T/C [8]: 44.3%
viability, T/C [9]: 53.2%
viability, T/C [10]: 65.4%
viability, T/C [11]: 72.5%
viability, T/C [12]: 28.4%
viability, T/C [13]: 22.3%
viability, T/C [14]: 40.9%
viability, T/C [15]: 62.1%
viability, T/C [16]: 61.6%
viability, T/C [17]: 64.6%
viability, T/C [18]: 30.1%
viability, T/C [19]: 21.3%
viability, T/C [20]: 41.7%
viability, T/C [21]: 66%
viability, T/C [22]: 61.7%
viability, T/C [23]: 70.5%
viability, T/C [24]: 24.5%
viability, T/C [25]: 14.9%
viability, T/C [26]: 36.3%
viability, T/C [27]: 57.2%
viability, T/C [28]: 69.8%
viability, T/C [29]: 63%
viability, T/C [30]: 16.4%
viability, T/C [31]: 8.12%
viability, T/C [32]: 19%
viability, T/C [33]: 34.3%
viability, T/C [34]: 32.4%
viability, T/C [35]: 38.4%

COc1cccc2c1C(=O)c1c(O)c3c(c(O)c1C2=O)CC(O)(C(=O)CO)CC3OC1CC(N)C(O)C(C)O1 (centres undefined) + Cc1cncc(-c2nc(NCCc3c[nH]c4ccccc34)c3ncn(C(C)C)c3n2)c1
IC50 [1]: < 31.6 nM
IC50 [2]: < 31.6 nM
IC50 [3]: < 31.6 nM
IC50 [4]: < 31.6 nM
IC50 [5]: < 31.6 nM
viability, T/C [6]: 28.3%
viability, T/C [7]: 17.7%
viability, T/C [8]: 5%
viability, T/C [9]: 0.93%
viability, T/C [10]: 0.14%
viability, T/C [11]: 0.22%
viability, T/C [12]: 26.7%
viability, T/C [13]: 16.3%
viability, T/C [14]: 4.84%
viability, T/C [15]: 0.28%
viability, T/C [16]: 0.12%
viability, T/C [17]: 0.18%
viability, T/C [18]: 27.6%
viability, T/C [19]: 15%
viability, T/C [20]: 4.86%
viability, T/C [21]: 0.26%
viability, T/C [22]: 0.16%
viability, T/C [23]: 0.25%
viability, T/C [24]: 21.4%
viability, T/C [25]: 15.9%
viability, T/C [26]: 4.37%
viability, T/C [27]: 0.22%
viability, T/C [28]: 0.16%
viability, T/C [29]: 0.28%
viability, T/C [30]: 8.93%
viability, T/C [31]: 5.47%
viability, T/C [32]: 3.18%
viability, T/C [33]: 0.37%
viability, T/C [34]: 0.16%
viability, T/C [35]: 0.24%

CCc1c2c(nc3ccc(O)cc13)-c1cc3c(c(=O)n1C2)COC(=O)[C@]3(O)CC
viability, T/C (compound 0.000949 µM): 67.7% and 96.1% and 59.2%
viability, T/C (compound 0.003 µM): 40.4% and 91.2% and 42.6%
viability, T/C (compound 0.00949 µM): 20% and 50% and 21.4%
viability, T/C (compound 0.03 µM): 13.4% and 36.5% and 21.1%
viability, T/C (compound 0.0949 µM): 14.4% and 37.9% and 15.2%
viability, T/C (compound 0.3 µM): 14.4% and 35.1% and 16.7%
IC50 (curve of compound): 2.01 nM and 9.5 nM and 1.79 nM

NS(=O)(=O)OCC1CC(n2ccc3c(NC4CCc5ccccc54)ncnc32)CC1O (centres undefined)
viability, T/C (compound 0.0316 µM): 56% and 124% and 59.6%
viability, T/C (compound 0.1 µM): 31.8% and 84.4% and 33.5%
viability, T/C (compound 0.316 µM): 17.6% and 31.9% and 17.2%
viability, T/C (compound 1 µM): 6.55% and 22.7% and 10.3%
viability, T/C (compound 3.16 µM): 4.52% and 19.9% and 8.23%
viability, T/C (compound 10 µM): 4.43% and 14.3% and 5.53%
IC50 (curve of compound): 42.3 nM and 215 nM and 48 nM
